US20240108632A1, “PHARMACEUTICAL COMPOSITION FOR ADMINISTRATION AS OPHTHALMIC DROP TO PATIENT REQUIRING OPTIC NERVE PROTECTION” (PINOTBIO, INC., priority 2020, published 2024)
Converted amounts (≈) assume the structure as drawn. “And” between values parts separate entries of the source, which are not always exact repeats. Equal entries are not always repeated.

Assays:
[1] = Solubility by HP-β-CD concentration at pH adjustment; type: physicochemical
Protocol: Various concentrations of HP-β-CD aqueous solutions were prepared by adding 1%, 2%, 3%, and 4% (w/v) of HP-β-CD to tertiary purified water (pH 5.5), pH 7.4 phosphate buffer, and 0.04 M NaOH aqueous solution (pH 12.5). An excess of KR-67607 was added to the above HP-β-CD solution and stirred for 24 hours, then the supernatant was collected and filtered through a 0.2 μm PVDF filter, and 1 mL was added to a 10 mL volumetric flask and labeled with methanol.
For the standard solution, 50 mg of KR-67607 was accurately weighed and placed in a 50 mL volumetric flask and completely dissolved/stained with methanol. 1, 2, 4, 6, 8, 10 mL of the standard solution was accurately taken and placed in a 20 mL volumetric flask, and the one labeled with methanol was used as the standard.

[2] = Solubility as a function of HP-β-CD concentration, without pH adjustment (purified water); type: physicochemical; details: no pH adjustment
Protocol: Various concentrations of HP-β-CD aqueous solutions were prepared by adding appropriate amounts of HP-β-CD at 0.5%, 1%, 2%, 3%, 4%, and 5% (w/v) in tertiary purified water. An excess of KR-67607 was added to the above HP-β-CD solution and stirred for 24 hours, then the supernatant was collected, filtered through a 0.2 μm PVDF filter, and 1 mL was added to a 10 mL volumetric flask and labeled with methanol.
The standard was 50 mg of KR-67607 accurately weighed and placed in a 50 mL volumetric flask and completely dissolved/stained with methanol. 1, 2, 4, 6, 8, 10 mL of the standard was accurately taken and placed in a 20 mL volumetric flask, and the one labeled with methanol was used as the standard.
The UV analysis conditions are as follows • Wavelength: 255 nm • Cell: 10 mm Quartz cell
KR-67607 concentration (μg/mL)=(UV absorbance of the sample−y-intercept of the standard curve)/(slope of the standard curve)×dilution factor of the sample. [Formula]

DBA/2 mice = assay: Histology and immunostaining of retina and optic nerve head in glaucoma mouse model; details: after 16 weeks of drug treatment
Protocol: After drug administration was terminated, the mice's eyes were enucleated and tissues were analyzed (FIGS. 14 to 26).
The optic nerve papilla area was analyzed by H&E staining, Caspase-3, 9, and TUNEL staining in retinal tissue removed and fixed from eyes of mice after 16 weeks of drug treatment. […] To determine the degree of cell death in the damaged optic nerve papilla tissue, Caspase-3, 9 staining (FIGS. 15 and 16), an indicator of early apoptosis, and TUNEL staining (FIG. 17), an indicator of late apoptosis, were performed.

[3] = Appearance of HP-β-CD solutions of KR-67607 prepared at various pH; type: physicochemical; details: solution before entrapment under alkaline conditions; 3% HP-β-CD, 0.15% KR-67607
Protocol: HP-β-CD aqueous solutions of various pH were prepared by adding 3% (w/v) appropriate amount of HP-β-CD to 0.08M NaOH aqueous solution, tertiary purified water, and 1M HCl aqueous solution. To each of the above different HP-β-CD solutions, 0.15% (w/v) KR-67607 was added and stirred for 1 hour, and then potassium dihydrogen phosphate, sodium chloride, and povidone K90 were mixed to a concentration of 0.68%, 0.435%, and 1.2% (w/v), respectively, to dissolve completely. The pH of the solution was adjusted to around 7.4 with 0.1 N HCl or 0.1 N NaOH aqueous solution, and then the total volume was adjusted by adding sterile purified water. The prepared solution was filtered through a 0.2 μm PVDF filter and evaluated for comparative appearance against a black background, and the results are shown in FIG. 5.

[4] = test system: New Zealand White rabbit ocular hypertension model animals; assay: IOP-lowering efficacy in rabbit ocular hypertension model (scleral vein ligation); type: in vivo
Protocol: This study was conducted in male New Zealand White rabbit ocular hypertension model animals (intraocular pressure ≥17 mmHg) induced by scleral vein ligation to determine the effectiveness of KR-67607 eye drops in reducing ocular hypertension after repeated twice daily ophthalmic administration for 11 days.
Sterile physiological saline (negative control), Xalatan, Timoptic, Trusopt, Xalacom, and KR-67607 eye drops were administered twice daily for 11 days, and mortality and general symptoms were monitored, body weight was measured, feed intake was measured, and intraocular pressure was measured.

GFAP, TNFα and BAX mRNA = assay: RT-PCR of retinal tissue from ocular hypertension rabbits; type: in vivo, New Zealand White rabbit; details: after Example 33 dosing
Protocol: Following Example 33, in order to separate the sample (eyeball) to observe the glaucoma treatment effect on the drug in addition to the change in intraocular pressure caused by the drug administration, the eyeball was enucleated and about 0.2 mL of the aqueous humor was collected, and then the retina (including some choroid) was collected. The collected aqueous humor and retina were placed in 1.5 mL polypropylene tubes pre-marked with sample information, frozen in a deep freezer (approximately −80° C.) until analysis, and delivered to the test site for analysis.
RNA or proteins were extracted from the eyes and analyzed by RT-PCR and western blotting to compare the expression of genes and proteins that can confirm the glaucoma treatment effect or optic nerve protection effect.
RNA was extracted from the isolated retinal tissue and analyzed by RT-PCR to compare the expression of genes that can confirm the glaucoma treatment effect or retinal protection effect. The tissues were lysed using TrizolTM Reagent (Invitrogen, CA, US) to extract the soluble RNA, and the RNA was precipitated by adding isopropanol (100%; Sigma-aldrich, MO, US).
Subsequently, cDNA was synthesized from the isolated RNA using a cDNA synthesis kit (AccuPower RT Premix; Bioneer, KR) and used for RT-PCR. The primer information used for RT-PCR analysis is as follows.
The synthesized DNA strands were then analyzed after separation on a 1.5% agarose gel using gene-specific primers (FIG. 28).

`CC1CN(CC(=O)NC2C3CC4CC2CC(C(N)=O)(C4)C3)S(=O)(=O)N(c2c(Cl)cc(C(F)(F)F)cc2Cl)C1` [KR-67607, (1s, 3R,4s,5S,7s)-4-(2-(6-(2,6-dichloro-4-(trifluoromethyl)phenyl)-4-methyl-1,1-dioxido-1,2,6-thiadiazinan-2-yl)acetamido)adamantane-1-carboxamide] gave a Solubility by HP-β-CD concentration ([1]; HP-β-CD 1.0 % w/v, 0.04M NaOH aqueous solution (pH 12.5)) of 3160 µg/mL (≈ 5.29 mM), a Solubility by HP-β-CD concentration ([1]; HP-β-CD 1.0 % w/v, phosphate buffer (pH 7.4)) of 2590 µg/mL (≈ 4.33 mM) and a Solubility by HP-β-CD concentration ([1]; HP-β-CD 1.0 % w/v, purified water (pH 5.5)) of 2550 µg/mL (≈ 4.27 mM). For the same compound, the Solubility by HP-β-CD concentration ([1]; HP-β-CD 2.0 % w/v, 0.04M NaOH aqueous solution (pH 12.5)) was 5720 µg/mL (≈ 9.57 mM), the Solubility by HP-β-CD concentration ([1]; HP-β-CD 2.0 % w/v, phosphate buffer (pH 7.4)) was 4290 µg/mL (≈ 7.18 mM) and the Solubility by HP-β-CD concentration ([1]; HP-β-CD 2.0 % w/v, purified water (pH 5.5)) was 4230 µg/mL (≈ 7.08 mM). For the same compound, the Solubility by HP-β-CD concentration ([1]; HP-β-CD 3.0 % w/v, 0.04M NaOH aqueous solution (pH 12.5)) was 7900 µg/mL (≈ 13.2 mM), the Solubility by HP-β-CD concentration ([1]; HP-β-CD 3.0 % w/v, phosphate buffer (pH 7.4)) was 6000 µg/mL (≈ 10 mM) and the Solubility by HP-β-CD concentration ([1]; HP-β-CD 3.0 % w/v, purified water (pH 5.5)) was 6000 µg/mL (≈ 10 mM). It also gave a Solubility by HP-β-CD concentration ([1]; HP-β-CD 4.0 % w/v, 0.04M NaOH aqueous solution (pH 12.5)) of 9610 µg/mL (≈ 16.1 mM), a Solubility by HP-β-CD concentration ([1]; HP-β-CD 4.0 % w/v, phosphate buffer (pH 7.4)) of 6790 µg/mL (≈ 11.4 mM) and a Solubility by HP-β-CD concentration ([1]; HP-β-CD 4.0 % w/v, purified water (pH 5.5)) of 6910 µg/mL (≈ 11.6 mM). For the same compound, the “the solubility of KR-67607” value ([2]; HP-β-CD 0.5 % w/v in purified water) was 1200 µg/mL, the “the solubility of KR-67607” value ([2]; HP-β-CD 1.0 % w/v in purified water) was 2550 µg/mL and the “the solubility of KR-67607” value ([2]; HP-β-CD 2.0 % w/v in purified water) was 4230 µg/mL. The “the solubility of KR-67607” value ([2]; HP-β-CD 3.0 % w/v in purified water) was 6000 µg/mL, the “the solubility of KR-67607” value ([2]; HP-β-CD 4.0 % w/v in purified water) was 6910 µg/mL and the “the solubility of KR-67607” value ([2]; HP-β-CD 5.0 % w/v in purified water) was 7250 µg/mL. The “Brn3a expression in flat-mounted retinal tissue” value (DBA/2 mice) was “relatively increased”, the GABAergic amacrine cells (DBA/2 mice) was “relatively increased” and the “GFAP expression (activated astrocytes) in optic nerve” value (DBA/2 mice) was “less concentrated”. The “GLT-1 expression in retina” value (DBA/2 mice) was “no quantitative or qualitative difference”, the “degree of retinal ganglion cell death (caspase-3 and 9)” value (DBA/2 mice) was “relatively reduced” and the “glaucomatous histologic features of optic nerve papilla (H&E: cupping, nerve fiber layer thinning)” value (DBA/2 mice) was “alleviated”. The “loss of retinal ganglion cells (H&E)” value (DBA/2 mice) was “less loss”, the “number of Iba-1 positive microglia” value (DBA/2 mice) was “decreased” and the “number of caspase-3, 9 expressing and TUNEL-positive cells in optic nerve papillae” value (DBA/2 mice) was “significantly reduced”. For the same compound, the “entrapment ability of HP-β-CD for KR-67607 (appearance, FIG. 5)” value [3] was “enhanced”, the “IOP reduction greater than in the negative control group” value ([4]; Day 5) was 34.4% and the “IOP reduction greater than in the negative control group” value ([4]; Day 8) was 45.5%. For the same compound, the “IOP compared to 100% of pre-dose IOP” value ([4]; day 5, twice daily ophthalmic administration) was 49.0% and 60.1%, the “greater IOP reduction than the Xalacom treatment group” value ([4]; day 8) was 3.6% and the “mRNA expression level of BAX in retinal tissues” value (GFAP, TNFα and BAX mRNA) was “tended to decrease”. The “mRNA expression level of GFAP in retinal tissues” value (GFAP, TNFα and BAX mRNA) was “tended to decrease” and the “mRNA expression level of TNFa in retinal tissues” value (GFAP, TNFα and BAX mRNA) was “tended to decrease”.
